biological target: HDAC2 (Homo sapiens, UniProt Q92769); experiment: HDAC2 fluorescence inhibition assay (tBoc-Lys(Ac)-AMC); conditions: not given
Sequence (Q92769 with tags, fused parts or gaps): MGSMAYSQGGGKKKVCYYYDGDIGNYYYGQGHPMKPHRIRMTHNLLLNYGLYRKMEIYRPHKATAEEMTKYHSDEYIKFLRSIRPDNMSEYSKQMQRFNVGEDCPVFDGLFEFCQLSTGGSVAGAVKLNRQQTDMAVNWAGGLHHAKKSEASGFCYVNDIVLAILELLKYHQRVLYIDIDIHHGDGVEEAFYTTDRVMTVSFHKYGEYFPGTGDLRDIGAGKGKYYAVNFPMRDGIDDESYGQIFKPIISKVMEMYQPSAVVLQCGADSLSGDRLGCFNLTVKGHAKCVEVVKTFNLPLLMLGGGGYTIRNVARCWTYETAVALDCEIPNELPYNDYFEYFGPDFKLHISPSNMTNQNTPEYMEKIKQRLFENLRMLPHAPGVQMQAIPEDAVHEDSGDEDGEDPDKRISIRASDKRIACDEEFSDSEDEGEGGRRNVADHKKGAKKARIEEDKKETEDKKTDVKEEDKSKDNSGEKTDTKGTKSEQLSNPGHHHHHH

Row | Structure (SMILES) | IC50 [nM]
1 | COCCCNC(=O)c1cnn(Cc2ccc(C(=O)Nc3ccccc3N)cc2)c1 [Example 152, 1-(4-(2-aminophenylcarbamoyl)benzyl)-N-(3-methoxypropyl)-1H-pyrazole-4-carboxamide] | ≤ 50
2 | Cc1c2cccc(F)c2nn1Cc1ccc(C(=O)Nc2ccccc2N)cc1 [Example 53, N-(2-aminophenyl)-4-((7-fluoro-3-methyl-2H-indazol-2-yl)methyl)benzamide] | 50 to 100
3 | Nc1ccccc1NC(=O)c1ccc(Cn2cc(C(=O)NCCO)cn2)cc1 [Example 143, 1-(4-(2-aminophenylcarbamoyl)benzyl)-N-(2-hydroxyethyl)-1H-pyrazole-4-carboxamide] | 50 to 100
4 | Cc1c2cccc(C(F)(F)F)c2nn1Cc1ccc(C(=O)Nc2ccccc2N)cc1 [Example 91, N-(2-aminophenyl)-4-((3-methyl-7-(trifluoromethyl)-2H-indazol-2-yl)methyl)benzamide] | 50 to 100
5 | Nc1ccccc1NC(=O)c1ccc(Cn2cc3cc(NC(=O)N4CCOCC4)ccc3n2)cc1 [Example 18, N-(2-(4-((2-Aminophenyl)carbamoyl)benzyl)-2H-indazol-5-yl)morpholine-4-carboxamide] | ≤ 50
6 | Nc1ccccc1NC(=O)c1ccc(Cn2nc3ccccc3c2-c2ccccc2)cc1 [Example 77, N-(2-aminophenyl)-4-((3-phenyl-2H-indazol-2-yl)methyl)benzamide] | 50 to 100
7 | Nc1ccn(Cc2ccc(C(=O)Nc3ccccc3N)cc2)n1 [Example 133, 4-((3-amino-1H-pyrazol-1-yl)methyl)-N-(2-aminophenyl)benzamide] | 100 to 500
8 | Nc1ccccc1NC(=O)c1ccc(Cn2[nH]c3ccccc3c2=O)cc1 [Example 65, N-(2-aminophenyl)-4-((3-oxo-1H-indazol-2(3H)-yl)methyl)benzamide] | 100 to 500
9 | Nc1ccccc1NC(=O)c1ccc(Cn2ncc3cc(NC(=O)OCc4ccccc4)ccc32)cc1 [Example 15, Benzyl 1-(4-((2-aminophenyl)carbamoyl)benzyl)-1H-indazol-5-ylcarbamate] | ≤ 50
10 | CC(=O)Nc1ccc2nn(Cc3ccc(C(=O)Nc4ccccc4N)cc3)cc2c1 [Example 4, 4-((5-acetamido-2H-indazol-2-yl)methyl)-N-(2-aminophenyl)benzamide] | ≤ 50
11 | NC(=O)c1cnn(Cc2ccc(C(=O)Nc3ccccc3N)cc2)c1 [Example 142, 1-(4-(2-aminophenylcarbamoyl)benzyl)-1H-pyrazole-4-carboxamide] | 50 to 100
12 | CC(C)NC(=O)c1cnn(Cc2ccc(C(=O)Nc3ccccc3N)cc2)c1 [Example 137, 1-(4-(2-aminophenylcarbamoyl)benzyl)-N-isopropyl-1H-pyrazole-4-carboxamide] | ≤ 50
13 | Nc1ccccc1NC(=O)c1ccc(Cn2nc3ccccc3c2N)cc1 [Example 88, 4-((3-amino-2H-indazol-2-yl)methyl)-N-(2-aminophenyl)benzamide] | 50 to 100
14 | Cc1nn(Cc2ccc(C(=O)Nc3ccccc3N)cc2)c2ccc(C(F)(F)F)cc12 [Example 94, N-(2-aminophenyl)-4-((3-methyl-5-(trifluoromethyl)-1H-indazol-1-yl)methyl)benzamide] | 50 to 100
15 | C[C@H](c1ccc(C(=O)Nc2ccccc2N)cc1)n1cc2ccccc2n1 [Example 50, (R)-4-(1-(2H-indazol-2-yl)ethyl)-N-(2-aminophenyl)benzamide] | 50 to 100
16 | COCCNC(=O)c1cnn(Cc2ccc(C(=O)Nc3ccccc3N)cc2)c1 [Example 151, 1-(4-(2-aminophenylcarbamoyl)benzyl)-N-(2-methoxyethyl)-1H-pyrazole-4-carboxamide] | 50 to 100
17 | Nc1ccccc1NC(=O)c1ccc(Cn2cc(C(=O)NCC3CC3)cn2)cc1 [Example 139, 1-(4-(2-aminophenylcarbamoyl)benzyl)-N-(cyclopropylmethyl)-1H-pyrazole-4-carboxamide] | 50 to 100
18 | Nc1ccc(-c2cccs2)cc1NC(=O)c1ccc(Cn2ncc3c(F)cc(F)cc32)cc1 [Example 113, N-(2-amino-5-(thiophen-2-yl)phenyl)-4-((4,6-difluoro-1H-indazol-1-yl)methyl)benzamide] | 100 to 500
19 | Nc1ccccc1NC(=O)c1ccc(Cn2cc(C(=O)NCc3ccncc3)cn2)cc1 [Example 146, 1-(4-(2-aminophenylcarbamoyl)benzyl)-N-(pyridin-4-ylmethyl)-1H-pyrazole-4-carboxamide] | ≤ 50
20 | Nc1ccc(-c2cccs2)cc1NC(=O)c1ccc(Cn2cc3c(F)cc(F)cc3n2)cc1 [Example 112, N-(2-amino-5-(thiophen-2-yl)phenyl)-4-((4,6-difluoro-2H-indazol-2-yl)methyl)benzamide] | 100 to 500

Second part, the compound after the results:

Row | IC50 [nM] | Structure (SMILES)
21 | 100 to 500 | Cc1nn(Cc2ccc(C(=O)Nc3ccccc3N)cc2)c2cccc(F)c12 [Example 54, N-(2-aminophenyl)-4-((4-fluoro-3-methyl-1H-indazol-1-yl)methyl)benzamide]
22 | ≤ 50 | Nc1ccccc1NC(=O)c1ccc(Cn2cc3cc(F)ccc3n2)cc1 [Example 38, N-(2-aminophenyl)-4-((5-fluoro-2H-indazol-2-yl)methyl)benzamide]
23 | ≤ 50 | Nc1ccccc1NC(=O)c1ccc(Cn2cc3cc([N+](=O)[O-])ccc3n2)cc1 [Example 8, N-(2-aminophenyl)-4-((5-nitro-2H-indazol-2-yl)methyl)benzamide]
24 | ≤ 50 | Nc1ccccc1NC(=O)c1ccc(Cn2cc(C(=O)NCc3cccnc3)cn2)cc1 [Example 145, 1-(4-(2-aminophenylcarbamoyl)benzyl)-N-(pyridin-3-ylmethyl)-1H-pyrazole-4-carboxamide]
25 | ≥ 500 | Nc1ncncc1NC(=O)c1ccc(Cn2cc3ccccc3n2)cc1 [Example 104, 4-((2H-indazol-2-yl)methyl)-N-(4-aminopyrimidin-5-yl)benzamide]
26 | 100 to 500 | Cc1c2ccc(O)cc2nn1Cc1ccc(C(=O)Nc2ccccc2N)cc1 [Example 75, N-(2-aminophenyl)-4-((6-hydroxy-3-methyl-2H-indazol-2-yl)methyl)benzamide]
27 | ≤ 50 | Nc1ccccc1NC(=O)c1ccc(Cn2cc(C(=O)NCCCO)cn2)cc1 [Example 153, 1-(4-(2-aminophenylcarbamoyl)benzyl)-N-(3-hydroxypropyl)-1H-pyrazole-4-carboxamide]
28 | 50 to 100 | Nc1ccccc1NC(=O)c1ccc(Cn2nnc3ccccc32)cc1 [Example 100, 4-((1H-benzo[d][1,2,3]triazol-1-yl)methyl)-N-(2-aminophenyl)benzamide]
29 | 50 to 100 | Nc1ccccc1NC(=O)c1ccc(Cn2nc(Cl)c3ccccc32)cc1 [Example 60, N-(2-aminophenyl)-4-((3-chloro-1H-indazol-1-yl)methyl)benzamide]
30 | ≤ 50 | COc1ccc2c(C)n(Cc3ccc(C(=O)Nc4ccccc4N)cc3)nc2c1 [Example 67, N-(2-aminophenyl)-4-((6-methoxy-3-methyl-2H-indazol-2-yl)methyl)benzamide]
31 | ≤ 50 | Nc1ccc(-c2cccs2)cc1NC(=O)c1ccc(Cn2cc3ccccc3n2)cc1 [Example 111, 4-((2H-indazol-2-yl)methyl)-N-(2-amino-5-(thiophen-2-yl)phenyl)benzamide]
32 | 50 to 100 | Cc1nn(Cc2ccc(C(=O)Nc3ccccc3N)cc2)c2c(F)cccc12 [Example 52, N-(2-aminophenyl)-4-((7-fluoro-3-methyl-1H-indazol-1-yl)methyl)benzamide]
33 | ≥ 500 | Nc1ccccc1NC(=O)c1ccc(CNc2cc[nH]n2)cc1 [Example 131, 4-((1H-pyrazol-3-ylamino)methyl)-N-(2-aminophenyl)benzamide]
34 | 50 to 100 | Cc1c2c(F)cccc2nn1Cc1ccc(C(=O)Nc2ccccc2N)cc1 [Example 55, N-(2-aminophenyl)-4-((4-fluoro-3-methyl-2H-indazol-2-yl)methyl)benzamide]
35 | ≤ 50 | COc1ccc2cn(Cc3ccc(C(=O)Nc4ccccc4N)cc3)nc2c1 [Example 59, N-(2-aminophenyl)-4-((6-methoxy-2H-indazol-2-yl)methyl)benzamide]
36 | 100 to 500 | CCc1c2ccccc2nn1Cc1ccc(C(=O)Nc2ccccc2N)cc1 [Example 73, N-(2-aminophenyl)-4-((3-ethyl-2H-indazol-2-yl)methyl)benzamide]
37 | 50 to 100 | CCOC(=O)c1cnn(Cc2ccc(C(=O)Nc3ccccc3N)cc2)c1 [Example 125, Ethyl 1-(4-(2-aminophenylcarbamoyl)benzyl)-1H-pyrazole-4-carboxylate]
38 | 50 to 100 | Nc1ccccc1NC(=O)c1ccc(Cn2ncc3cc(F)ccc32)cc1 [Example 37, N-(2-aminophenyl)-4-((5-fluoro-1H-indazol-1-yl)methyl)benzamide]
39 | ≤ 50 | Nc1ccccc1NC(=O)c1ccc(Cn2ncc3cc(NC(=O)OCCN4CCOCC4)ccc32)cc1 [Example 22, 2-Morpholinoethyl 1-(4-((2-aminophenyl)carbamoyl)benzyl)-1H-indazol-5-ylcarbamate]
40 | ≤ 50 | Nc1ccccc1NC(=O)c1ccc(Cn2cc3c(F)cccc3n2)cc1 [Example 49, N-(2-aminophenyl)-4-((4-fluoro-2H-indazol-2-yl)methyl)benzamide]
41 | 50 to 100 | CC(c1ccc(C(=O)Nc2ccccc2N)cc1)n1ncc2ccccc21 (stereo not drawn) [Example 108, 4-(1-(1H-indazol-1-yl)ethyl)-N-(2-aminophenyl)benzamide]
42 | ≤ 50 | CC(=O)Nc1ccc2c(C)n(Cc3ccc(C(=O)Nc4ccccc4N)cc3)nc2c1 [Example 86, 4-((6-acetamido-3-methyl-2H-indazol-2-yl)methyl)-N-(2-aminophenyl)benzamide]
43 | 50 to 100 | CC(=O)Nc1ccc2c(c1)c(C)nn2Cc1ccc(C(=O)Nc2ccccc2N)cc1 [Example 107, 4-((5-acetamido-3-methyl-1H-indazol-1-yl)methyl)-N-(2-aminophenyl)benzamide]
44 | 50 to 100 | Cc1nn(Cc2ccc(C(=O)Nc3ccccc3N)cc2)c2cc(F)ccc12 [Example 68, N-(2-aminophenyl)-4-((6-fluoro-3-methyl-1H-indazol-1-yl)methyl)benzamide]

same assay, conditions: read-out: IC50 of selected exemplified compounds against HDAC2; 50 μM tBoc-Lys(Ac)-AMC, 1 nM HDAC2, 60 minutes at room temperature

Row | Structure (SMILES) | IC50 [nM]
45 | CC(=O)Nc1ccc2c(cnn2Cc2ccc(C(=O)Nc3ccccc3N)cc2)c1 [Example 102, 4-((5-acetamido-1H-indazol-1-yl)methyl)-N-(2-aminophenyl)benzamide] | ≥ 500

Source: US7732475B2, “Histone deacetylase inhibitors” (Takeda San Diego, Inc., priority 2005, dated 2010)
